We go through five compounds from patent EP0968998A1, “Cosmetic compositions, ceramide analogues with anti-elastase activity and process for their preparation” (ELF ATOCHEM S.A., priority 1998, dated 2000).

The assay concerns the target T1, élastase de leucocytes humains (Homo sapiens, UniProt P08246).
T1 construct: purchased Elastin Products Co. SE 563; host or cells: human leukocytes, as the enzyme's name says
T1 sequence (P08246 30-267): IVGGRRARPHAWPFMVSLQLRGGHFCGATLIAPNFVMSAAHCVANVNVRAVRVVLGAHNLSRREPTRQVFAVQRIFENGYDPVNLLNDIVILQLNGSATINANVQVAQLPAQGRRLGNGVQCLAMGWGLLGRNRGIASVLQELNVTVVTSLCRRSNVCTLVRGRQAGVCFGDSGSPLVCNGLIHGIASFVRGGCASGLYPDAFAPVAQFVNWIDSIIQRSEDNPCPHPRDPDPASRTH
Description: Anti-elastase activity: release of p-nitroaniline from N-succinyl-(Ala)3-p-nitroanilide, spectrophotometry at 410 nm. It counts as biochemical. The note with it: pH 8, 37°C, pH8, 5 min preincubation, substrate 250 µM, read-out: % I (%); for inhibition at 250 µM: Concentration 250 µM; for inhibition at 500 µM: Concentration 500 µM. The source says:
Les exemples qui suivent permettent d'illustrer l'invention. Dans ces exemples, on utilise les méthodes d'analyse suivantes : - Spectrographie infrarouge (IR) Les spectres sont réalisés au moyen d'un appareil PERKIN ELMER 1760 IRTF, en dispersion dans KBr à 1 %. Les valeurs sont exprimées en nombre d'onde par centimètre. - Résonance magnétique nucléaire (RMN) Les spectres sont réalisés au moyen d'un appareil BRUCKER DRX 500, à 500 MHz (^1H) et 125 MHz (^13C) dans le DMSO-d6. La calibration de l'appareil est effectuée au moyen de DMSO. Les déplacements chimiques sont exprimés en ppm. L'aspect des signaux est noté : singulet (s), doublet (d), triplet (t), quadruplet (q), multiplet (m), quintuplet (*5) et couplage AB (AB). - Mesure de l'activité anti-élastase L'activité anti-élastase est mesurée selon la méthode qui consiste à faire réagir l'élastase de leucocytes humains (référence SE 563; Elastin Products Co.; Owensville, MO, USA) avec le N-succinyl-(Ala)3-p-nitroanilide (réf. S4760; Sigma) et mesurer la libération de p-nitroaniline. On utilise le N-succinyl-(Ala)3-p-nitroanilide en solution dans le tétrahydrofurane et une solution d'élastase à 100 mg/ml dans un mélange de glycérol et de tampon acétate de sodium (50/50; v/v), pH5. L'activité de l'enzyme est mesurée à 37°C dans 100 mM de tampon Tris-HCI, pH8 contenant 0,01 % de Triton X-100 (volume/volume) et 0,02 % d'azide de sodium (poids/volume). Le céramide à tester, solubilisé dans le tétrahydrofurane (concentration en THF = 0,5 % en volume) est préincubé en présence de l'enzyme (0,05 mg/ml) dans le tampon pendant 5 minutes à 37°C. On ajoute le N-succinyl-(Ala)3-p-nitroanilide (concentration finale : 250 µM) et on mesure la libération de la p-nitroaniline dans une cuve en quartz par spectrophotométrie à 410 nm. La capacité inhibitrice du céramide est exprimée en pourcentage d'inhibition (% I) selon la relation : %I = (1 -(Vi)/(Vo))×100 [formula] dans laquelle Vi et Vo sont les vitesses d'apparition de la p-nitroaniline en présence et en absence d'inhibiteur respectivement. - Mesure de l'amélioration de la barrière cutanée a) mesure de la Perte Insensible en Eau (PIE) La mesure de la PIE permet de quantifier la très faible quantité d'eau qui diffuse passivement à travers le stratum corneum. Ce paramètre représente un très bon index de la fonction barrière du stratum corneum. Cette méthode est surtout utilisée pour contrôler l'efficacité de formules cosmétiques qui, contenant certains types de lipides sont capables de diminuer la PIE et, en conséquence, d'empêcher la déshydratation du stratum corneum. La sonde est laissée en contact de la peau pendant 2 minutes environ de façon à atteindre une position d'équilibre. PIE = D'(dP)/(dx)(gradient de pression de vapeur) [formula] Les valeurs sont exprimées en g/m^2/heure et permettent de calculer un delta de PIE = PIE (peau traitée) - PIE (peau témoin). L'appareil utilisé est un Evaporimètre EPI de Servomed. Les mesures sont effectuées sur deux groupes de 15 volontaires sains ayant une peau sèche, avant l'application du produit (t=0) et après l'application (t=0,5 heure, 1 heure, 3 heures et 6 heures) sur la face interne des deux avant-bras. L'analogue de céramide selon l'invention ou le céramide témoin est incorporé dans une crème ayant la composition suivante (en % en poids) : […]

In the case of `CCCCCCCCCCCCC/C=C/[C@@H](O)[C@H](CO)NC(=O)CCCCCCCCCCCCCCC` [Référence (a), N-palmitoyl-D-érythro-1,3-dihydroxy-2-amino-4-trans octadécène, reference compound], the inhibition at 250 µM came out at 81% and the inhibition at 500 µM was found to be 100%.
The matching figures for `CCCCCCCCCCCCCCCC(=O)NC(CO)COC(=O)CCCCCCCCCCCCCCC` (stereo not shown) [Exemple 1, 1-palmitoyl-2-palmitoylamino-1,3-propanediol]: 55% and 66%.
Consider `CCCCCCCCCCCCCCCC(=O)NC(CC)(CO)COC(=O)CCCCCCCCCCCCCCC` (stereo not shown) [Exemple 3, 1-palmitoyl-2-éthyl-2-palmitoylamino-1,3-propanediol], for which the inhibition at 250 µM stood at 33% and the inhibition at 500 µM came out at 43%.
The matching figures for `CCCCCCCCCCCCCCCCCC(=O)N[C@@H](CO)[C@H](O)[C@H](O)CCCCCCCCCCCCCC` [Référence (b), N-stéaroyl-phytosphingosine, reference compound]: 44% and 50%.
The matching figures for `CCCCCCCCCCCCCCCC(=O)NC(C)(CO)COC(=O)CCCCCCCCCCCCCCC` (stereo not shown) [Exemple 2, 1-palmitoyl-2-méthyl-2-palmitoylamino-1,3-propanediol]: 8% and 57%.
